Like-named read-outs stand apart in the source and are kept apart here.
Experiments:
[1] = biological target: T1, BuChE (from equine serum) (Equus caballus, UniProt P81908); test: biochemical; format: biochemical; conditions: for IC50: mean ± SEM of three experiments, read-out: eq BuChE IC50; for eq BuChE %inhib.: test concentration not given
T1 construct: BuChE from equine serum was employed for Ellman’s assay; purchased Merck or Aldrich; host or cells: equine serum
Description: (§1) AChE from electrophorus electricus and BuChE from equine serum was employed for Ellman’s assay. Each compound (5.0 mg) was dissolved in 1.0 ml of DMSO. […] Briefly, a mixture of phosphate buffer (2.0 ml, 0.1 M, pH = 8.0), 60.0 µl of DTNB solution, and 20.0 µl of AChE/BuChE was prepared, and 30.0 µl of the test compounds in different concentrations were then added to the mixture. Next, a solution of the substrate (acetylthiocholine iodide/butyrylthiocholine iodide, 20.0 µl) was added to the mixture after 10 min incubation at 25°C. All experiments were performed in triplicates, and the temperature of all solutions was controlled to be maintained at 25°C. […] The blank solution was used to validate the non-enzymatic hydrolysis of the substrate during the assessment. The blank solution was prepared by a mixture of 2.0 ml of buffer, 30.0 μl of DMSO, 60.0 μl of DTNB, and 20.0 μl of substrate. The rate of the enzymatic hydrolysis of the substrate was calculated, and % inhibition of the compounds was determined. The half maximal inhibitory concentration (IC50) values were graphically determined from inhibition curves (logarithm of the concentration of the tested compound versus percent of the inhibition).

[2] = biological target: T2, AChE (from electrophorus electricus) (Electrophorus electricus, UniProt O42275); test: Cholinesterase inhibition assay (Ellman's method), AChE; format: biochemical; conditions: test concentration not given
T2 construct: purchased Merck or Aldrich
T2 sequence (O42275 24-633): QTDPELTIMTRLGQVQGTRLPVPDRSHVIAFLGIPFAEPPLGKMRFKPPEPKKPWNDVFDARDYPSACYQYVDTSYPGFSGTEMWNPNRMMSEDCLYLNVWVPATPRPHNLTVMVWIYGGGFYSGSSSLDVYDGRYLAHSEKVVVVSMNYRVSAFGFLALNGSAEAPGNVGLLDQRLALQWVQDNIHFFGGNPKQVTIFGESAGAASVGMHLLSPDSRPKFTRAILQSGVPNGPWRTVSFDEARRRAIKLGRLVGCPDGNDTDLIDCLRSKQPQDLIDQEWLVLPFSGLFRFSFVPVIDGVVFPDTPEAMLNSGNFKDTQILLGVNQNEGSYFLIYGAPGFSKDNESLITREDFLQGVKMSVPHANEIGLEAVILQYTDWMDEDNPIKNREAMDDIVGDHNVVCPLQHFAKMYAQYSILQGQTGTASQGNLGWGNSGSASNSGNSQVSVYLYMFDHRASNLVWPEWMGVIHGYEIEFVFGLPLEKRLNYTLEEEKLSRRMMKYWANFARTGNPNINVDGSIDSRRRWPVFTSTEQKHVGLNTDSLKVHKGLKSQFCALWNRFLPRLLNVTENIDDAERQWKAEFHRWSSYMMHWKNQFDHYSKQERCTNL
Description: as §1

[3] = biological target: T3, 15-LOX (soybean lipoxygenase) (Glycine max, UniProt P08170); test: Soybean 15-LOX inhibition assay; format: biochemical
T3 construct: purchased Merck or Aldrich
T3 sequence (P08170 1-839): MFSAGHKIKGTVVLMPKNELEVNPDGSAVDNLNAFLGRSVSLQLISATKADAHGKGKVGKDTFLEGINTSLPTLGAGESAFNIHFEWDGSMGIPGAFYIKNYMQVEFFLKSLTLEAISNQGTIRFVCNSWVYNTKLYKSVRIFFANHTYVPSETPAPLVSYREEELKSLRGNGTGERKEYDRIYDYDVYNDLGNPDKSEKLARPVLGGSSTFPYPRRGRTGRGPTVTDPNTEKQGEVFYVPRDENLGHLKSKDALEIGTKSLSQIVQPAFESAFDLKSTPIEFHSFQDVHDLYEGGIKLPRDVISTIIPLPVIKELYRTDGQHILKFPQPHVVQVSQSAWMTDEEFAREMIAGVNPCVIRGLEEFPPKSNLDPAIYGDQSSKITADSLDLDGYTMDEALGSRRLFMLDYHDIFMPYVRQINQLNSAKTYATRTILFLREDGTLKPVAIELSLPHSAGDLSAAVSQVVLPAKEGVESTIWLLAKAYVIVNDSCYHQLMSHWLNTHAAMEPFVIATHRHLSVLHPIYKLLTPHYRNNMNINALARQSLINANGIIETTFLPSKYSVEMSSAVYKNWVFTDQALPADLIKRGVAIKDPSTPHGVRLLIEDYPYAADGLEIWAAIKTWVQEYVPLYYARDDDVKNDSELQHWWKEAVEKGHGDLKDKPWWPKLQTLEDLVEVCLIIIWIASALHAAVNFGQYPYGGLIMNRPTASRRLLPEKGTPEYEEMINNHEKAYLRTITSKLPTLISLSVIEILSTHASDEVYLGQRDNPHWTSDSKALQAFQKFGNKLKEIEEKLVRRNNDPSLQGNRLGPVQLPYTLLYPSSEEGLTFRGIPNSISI
Description: A solution of the target compound was prepared in DMSO, and it was diluted with phosphate buffer (0.1 M, pH = 8.0).

Aβ1-42 = biological target: T4, Aβ1-42 (Homo sapiens, UniProt P05067); test: Self-induced Aβ1-42 aggregation (ThT assay); format: biochemical; conditions: Aβ1-42 10.0 μM, compound 100.0 μM, ThT
T4 construct: was used to dissolve amyloid β1-40 (Sigma A1075); purchased Sigma A1075
T4 sequence (P05067 672-711): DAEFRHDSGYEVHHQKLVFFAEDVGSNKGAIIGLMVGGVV

in vitro = format: cell-based; conditions: MTT, read-out: PC12 viability percent (cytotoxicity)
Description: The cytotoxic effect of the selected compounds (8l and 8n) on the PC12 cell line was evaluated by using the MTT-based colorimetric assay. First, the PC12 cell line was cultivated in DMEM culture medium, supplemented with fetal bovine serum (10%). […]. Thereafter, the culture medium of each well was replaced by 20 µl MTT solution (5.0 mg/ml) and incubated to form formazan crystals, followed by dissolving them in DMSO (100.0 µl) and recording the related absorbance at 570 nm using a Synergy 2 multimode plate reader (Biotek, Winooski, VT, United States). The viability percent was then calculated according to the control well, where no compound was added to the related well. The mentioned protocol was repeated in triplicates, and the mean ± SEM of the obtained results was reported.

[4] = soybean lipoxygenase, linoleic acid substrate, read-out: 15-LOX IC50

T1 sequence (P81908 whole entry): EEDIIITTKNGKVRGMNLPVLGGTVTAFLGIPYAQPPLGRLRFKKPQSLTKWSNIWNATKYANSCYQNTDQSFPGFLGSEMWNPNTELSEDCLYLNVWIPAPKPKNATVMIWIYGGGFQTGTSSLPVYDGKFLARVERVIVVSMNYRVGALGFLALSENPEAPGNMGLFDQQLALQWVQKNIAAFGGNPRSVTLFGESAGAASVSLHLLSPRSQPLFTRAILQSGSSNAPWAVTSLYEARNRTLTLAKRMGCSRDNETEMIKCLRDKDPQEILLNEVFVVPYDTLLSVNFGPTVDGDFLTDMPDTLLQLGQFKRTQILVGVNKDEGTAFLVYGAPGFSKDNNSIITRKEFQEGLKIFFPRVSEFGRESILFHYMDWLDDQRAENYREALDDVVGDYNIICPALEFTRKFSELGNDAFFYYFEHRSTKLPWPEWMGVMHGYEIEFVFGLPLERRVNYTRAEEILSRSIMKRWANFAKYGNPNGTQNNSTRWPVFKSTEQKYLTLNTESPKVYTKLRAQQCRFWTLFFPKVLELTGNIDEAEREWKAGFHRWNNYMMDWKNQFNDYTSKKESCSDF

Structure (SMILES)	IC50 [1]	ee AChE %inhib. [2]	IC50 [3]	eq BuChE %inhib. [1]	IC50 [3, 4]	Inhibition of self-induced Aβ1-42 aggregation (Aβ1-42)	viability at 24 h, 50 µM (in vitro)
O=c1oc2ccccc2cc1-c1ccc(OCc2cn(Cc3ccccc3)nn2)cc1 [8a, 3-(4-((1-Benzyl-1H-1,2,3-triazol-4-yl)methoxy)phenyl)-2H-chromen-2-one]	27.6 ± 1.3 µM	23.6%	36.2 ± 1.5 µM				
O=c1oc2ccccc2cc1-c1ccc(OCc2cn(Cc3ccccc3F)nn2)cc1 [8b, 3-(4-((1-(2-Fluorobenzyl)-1H-1,2,3-triazol-4-yl)methoxy)phenyl)-2H-chromen-2-one]	36.5 ± 1.1 µM	11.2%	16.5 ± 0.7 µM				
O=c1oc2ccccc2cc1-c1ccc(OCc2cn(Cc3cccc(F)c3)nn2)cc1 [8c, 3-(4-((1-(3-Fluorobenzyl)-1H-1,2,3-triazol-4-yl)methoxy)phenyl)-2H-chromen-2-one]		15.3%	28.3 ± 1.4 µM	48.9%			
O=c1oc2ccccc2cc1-c1ccc(OCc2cn(Cc3ccc(F)cc3)nn2)cc1 [8d, 3-(4-((1-(4-Fluorobenzyl)-1H-1,2,3-triazol-4-yl)methoxy)phenyl)-2H-chromen-2-one]		32.4%	45.2 ± 1.5 µM	12.7%			
O=c1oc2ccccc2cc1-c1ccc(OCc2cn(Cc3ccccc3Cl)nn2)cc1 [8e, 3-(4-((1-(2-Chlorobenzyl)-1H-1,2,3-triazol-4-yl)methoxy)phenyl)-2H-chromen-2-one]		37.3%			> 100 µM		
O=c1oc2ccccc2cc1-c1ccc(OCc2cn(Cc3ccc(Cl)cc3)nn2)cc1 [8f, 3-(4-((1-(4-Chlorobenzyl)-1H-1,2,3-triazol-4-yl)methoxy)phenyl)-2H-chromen-2-one]		41.4%		23.6%	> 100 µM		
O=c1oc2ccccc2cc1-c1ccc(OCc2cn(Cc3ccc(Br)cc3)nn2)cc1 [8g, 3-(4-((1-(4-Bromobenzyl)-1H-1,2,3-triazol-4-yl)methoxy)phenyl)-2H-chromen-2-one]		35.5%		46.7%	> 100 µM		
O=c1oc2ccccc2cc1-c1ccc(OCc2cn(Cc3ccccc3[N+](=O)[O-])nn2)cc1 [8h, 3-(4-((1-(2-Nitrobenzyl)-1H-1,2,3-triazol-4-yl)methoxy)phenyl)-2H-chromen-2-one]		20.8%			> 100 µM		
O=c1oc2ccccc2cc1-c1ccc(OCc2cn(Cc3cccc([N+](=O)[O-])c3)nn2)cc1 [8i, 3-(4-((1-(3-Nitrobenzyl)-1H-1,2,3-triazol-4-yl)methoxy)phenyl)-2H-chromen-2-one]		49.9%			> 100 µM		
O=c1oc2ccccc2cc1-c1ccc(OCc2cn(Cc3ccc([N+](=O)[O-])cc3)nn2)cc1 [8j, 3-(4-((1-(4-Nitrobenzyl)-1H-1,2,3-triazol-4-yl)methoxy)phenyl)-2H-chromen-2-one]		14.7%			> 100 µM		
Cc1cccc(Cn2cc(COc3ccc(-c4cc5ccccc5oc4=O)cc3)nn2)c1 [8k, 3-(4-((1-(3-Methylbenzyl)-1H-1,2,3-triazol-4-yl)methoxy)phenyl)-2H-chromen-2-one]		27.4%		37.1%	53.5 ± 1.5 µM		
COc1ccc(Cn2cc(COc3ccc(-c4cc5ccccc5oc4=O)cc3)nn2)cc1 [8m, 3-(4-((1-(4-Methoxybenzyl)-1H-1,2,3-triazol-4-yl)methoxy)phenyl)-2H-chromen-2-one]		26.6%	41 ± 1.4 µM	40.2%			
COc1cccc2cc(-c3ccc(OCc4cn(Cc5ccccc5F)nn4)cc3)c(=O)oc12 [8o, 3-(4-((1-(2-Fluorobenzyl)-1H-1,2,3-triazol-4-yl)methoxy)phenyl)-8-methoxy-2H-chromen-2-one]		4.0%	14.2 ± 0.4 µM	8.0%			
COc1cccc2cc(-c3ccc(OCc4cn(Cc5cccc(F)c5)nn4)cc3)c(=O)oc12 [8p, 3-(4-((1-(3-Fluorobenzyl)-1H-1,2,3-triazol-4-yl)methoxy)phenyl)-8-methoxy-2H-chromen-2-one]		29.8%	22.6 ± 0.8 µM	41.7%			
COc1cccc2cc(-c3ccc(OCc4cn(Cc5ccc(F)cc5)nn4)cc3)c(=O)oc12 [8q, 3-(4-((1-(4-Fluorobenzyl)-1H-1,2,3-triazol-4-yl)methoxy)phenyl)-8-methoxy-2H-chromen-2-one]	18.9 ± 0.9 µM	38.1%	35 ± 1.3 µM				
COc1cccc2cc(-c3ccc(OCc4cn(Cc5ccc(Cl)cc5)nn4)cc3)c(=O)oc12 [8r, 3-(4-((1-(4-Chlorobenzyl)-1H-1,2,3-triazol-4-yl)methoxy)phenyl)-8-methoxy-2H-chromen-2-one]	6.7 ± 0.4 µM	41.5%	> 100 µM				
COc1cccc2cc(-c3ccc(OCc4cn(Cc5ccccc5[N+](=O)[O-])nn4)cc3)c(=O)oc12 [8s, 8-Methoxy-3-(4-((1-(2-nitrobenzyl)-1H-1,2,3-triazol-4-yl)methoxy)phenyl)-2H-chromen-2-one]		27.4%		42.5%	> 100 µM		
O=c1oc2ccc(Br)cc2cc1-c1ccc(OCc2cn(Cc3ccc(Br)cc3)nn2)cc1 [8t, 6-Bromo-3-(4-((1-(4-bromobenzyl)-1H-1,2,3-triazol-4-yl)methoxy)phenyl)-2H-chromen-2-one]		15.1%			> 100 µM		
O=c1oc2ccc(Br)cc2cc1-c1ccc(OCc2cn(Cc3ccccc3F)nn2)cc1 [8u, 6-Bromo-3-(4-((1-(2-fluorobenzyl)-1H-1,2,3-triazol-4-yl)methoxy)phenyl)-2H-chromen-2-one]		45.1%		46.6%	61.5 ± 1.9 µM		
O=c1oc2ccc([N+](=O)[O-])cc2cc1-c1ccc(OCc2cn(Cc3ccccc3)nn2)cc1 [8v, 3-(4-((1-Benzyl-1H-1,2,3-triazol-4-yl)methoxy)phenyl)-6-nitro-2H-chromen-2-one]	6.3 ± 0.4 µM	48.3%	> 100 µM				
O=c1oc2ccc([N+](=O)[O-])cc2cc1-c1ccc(OCc2cn(Cc3ccccc3F)nn2)cc1 [8w, 3-(4-((1-(2-Fluorobenzyl)-1H-1,2,3-triazol-4-yl)methoxy)phenyl)-6-nitro-2H-chromen-2-one]		16.6%		30.4%	> 100 µM		
COc1cc2c(cc1OC)C(=O)C(CC1CCN(Cc3ccccc3)CC1)C2 (stereo not drawn) [Donepezil, donepezil, reference compound]						42.5 ± 0.3%	
Nc1c2c(nc3ccccc13)CCCC2 [Tacrine, tacrine, reference compound]							67.3 ± 1.3%
